The text below walks through data of ChEMBL document CHEMBL1201862, “PubChem BioAssay data set” (2004).

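Method: 48-hour compound exposure of cells in 96-well plates, five concentrations, linear interpolation of endpoints. GI50: concentration for 50% inhibition of growth.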 The source made the active and inactive calls. No stated cut-off is given here; in the data, active = GI50 up to about 1.1 µM and inactive = higher. Where a SMILES comes first, the peptide text is derived from it. [ ]: non-standard residue; d: D form. The star is where a group is joined. ξ: configuration not given here. ξD = NC(CC(=O)O)C(=O)O; Boc = CC(C)(C)OC(=O)*; Aib = CC(C)(N)C(=O)O; OBn = c1ccc(CO*)cc1

Among the test systems are 786-0; CAKI-1; COLO 205; HCC 2998; HCT-15; K562; M14; MDA-N; MOLT-4; NCI-H23; NCI-H522; RXF 393; SK-MEL-2; SNB-75; SW-620; T47D; U-251; UACC-62; UO-31; SR.
Holding throughout (experiment): NCI tumour cell line growth inhibition, 48 h

In the case of `O=C(O)/C(=C\c1ccccc1)Cc1ccccc1`, the GI50 is > 100 µM (inactive) in the assay on 786-0; > 100 µM (inactive) in the assay on CAKI-1; > 100 µM (inactive) in the assay on COLO 205; > 100 µM (inactive) with HCC 2998; above 100 µM with HCT-15; > 100 µM (inactive) in the assay with K562. For the same compound, the GI50 with M14, in the assay with MDA-N, in the assay with MOLT-4, with NCI-H23, in the assay on NCI-H522 and in the assay with RXF 393 was > 100 µM (inactive) each time. The GI50 in the assay with SK-MEL-2, in the assay on SNB-75, in the assay with SW-620, in the assay with T47D, in the assay on U-251 and with UACC-62 was > 100 µM (inactive) throughout. Besides, the GI50 in the assay with UO-31 is > 100 µM (inactive).

In the case of `COc1cc(C(=O)N(C(=O)N2CCCCC2)c2ccccc2)cc(OC)c1OC`, the GI50 was > 100 µM (inactive) with 786-0; > 100 µM (inactive) in the assay on CAKI-1; > 100 µM (inactive) in the assay with COLO 205; > 100 µM (inactive) in the assay on HCC 2998; above 100 µM with HCT-15; > 100 µM (inactive) in the assay on K562. The GI50 in the assay with M14, in the assay on MDA-N, in the assay on MOLT-4, in the assay with NCI-H23, with SK-MEL-2 and in the assay with SNB-75 was > 100 µM (inactive) in each case. For the same compound, the GI50 with SR, with SW-620, with T47D, in the assay with U-251, in the assay on UACC-62 and in the assay on UO-31 was > 100 µM (inactive) throughout.

On to `COC(=O)C(Cc1ccc(Oc2cc(CC(NC(=O)c3ccccc3)C(=O)OC)ccc2OC)cc1)NC(=O)c1ccccc1` (stereo unspecified), for which the GI50 was 7.83 µM (inactive) with 786-0; 54.8 µM (inactive) in the assay with CAKI-1; 27 µM (inactive) with COLO 205; 13.5 µM (inactive) with HCC 2998; 28.7 µM in the assay on HCT-15; 2.01 µM (inactive) with K562. Also, the GI50 in the assay with M14 is 6.95 µM (inactive); in the assay with MDA-N, 14.2 µM (inactive); in the assay with MOLT-4, 0.948 µM (active); in the assay on NCI-H23, 22.9 µM (inactive); in the assay on NCI-H522 it was 7.29 µM (inactive); in the assay on RXF 393, 14.7 µM (inactive). Moreover, the GI50 in the assay with SK-MEL-2 was 14.5 µM (inactive); with SNB-75, 29.7 µM (inactive); in the assay with SW-620, 39.3 µM (inactive); in the assay on T47D it was 6.04 µM (inactive); in the assay with U-251, 32.8 µM (inactive); in the assay with UACC-62, 17.9 µM (inactive). In addition, the GI50 with UO-31 is 9.59 µM (inactive).

Take `CCOC(=O)/C=C(/C(=O)OCC)n1c(=O)c(C)cn(C2CC(N=[N+]=[N-])C(CO)O2)c1=O` (stereo unspecified): the GI50 with 786-0 was 25.4 µM (inactive); with CAKI-1, 31.6 µM (inactive); with COLO 205, 14.5 µM (inactive); in the assay with HCC 2998 it was 16.4 µM (inactive); in the assay on HCT-15 it was 29.7 µM; with K562, 1.86 µM (inactive). Further, the GI50 with M14 is 26.4 µM (inactive); with MDA-N, 43 µM (inactive); in the assay on MOLT-4, < 0.01 µM (active); in the assay on NCI-H23, 34 µM (inactive); in the assay on NCI-H522 it was 20.7 µM (inactive); in the assay on RXF 393, 24.2 µM (inactive). Besides, the GI50 was 19.5 µM (inactive) in the assay with SK-MEL-2; 56.9 µM (inactive) in the assay on SNB-75; 17 µM (inactive) with SW-620; 27.2 µM (inactive) in the assay with T47D; 18 µM (inactive) in the assay with U-251; 85.9 µM (inactive) with UACC-62. Also, in the assay on UO-31, the GI50 was 46.6 µM (inactive).

Take `COc1ccc(-n2cnc3c(NC(C)(C)C(=O)O)ncnc32)cc1`: the GI50 is > 100 µM (inactive) in the assay on 786-0; > 100 µM (inactive) in the assay on CAKI-1; > 100 µM (inactive) in the assay with COLO 205; > 100 µM (inactive) with HCC 2998; above 100 µM in the assay with HCT-15; > 100 µM (inactive) in the assay with K562. The GI50 in the assay on M14, in the assay on MDA-N, in the assay with MOLT-4, in the assay with NCI-H23, in the assay with SK-MEL-2 and in the assay with SNB-75 was > 100 µM (inactive) throughout. Further, the GI50 with SR, in the assay with SW-620, in the assay with T47D, in the assay on U-251, with UACC-62 and in the assay with UO-31 was > 100 µM (inactive) each time.

For the compound `O=C(CCc1ccccc1)On1c(-c2ccccc2)nc2ccccc2c1=S`, the GI50 in the assay on 786-0 is 2.06 µM (inactive); in the assay with CAKI-1, 5.68 µM (inactive); in the assay with COLO 205, 4.28 µM (inactive); with HCC 2998, 4.52 µM (inactive); in the assay with HCT-15, 2.32 µM; in the assay on K562, 4.6 µM (inactive). Moreover, the GI50 with M14 was 5.57 µM (inactive); in the assay on MDA-N, 12.9 µM (inactive); with MOLT-4, 0.455 µM (active); in the assay on NCI-H23, 4.3 µM (inactive); in the assay with RXF 393 it was 18.6 µM (inactive); with SK-MEL-2 it was 8.81 µM (inactive). Moreover, the GI50 is 9.77 µM (inactive) in the assay with SNB-75; 8.26 µM (inactive) with SW-620; 6.79 µM (inactive) in the assay with T47D; 4.38 µM (inactive) with U-251; 3.94 µM (inactive) in the assay with UACC-62; 3.66 µM (inactive) with UO-31.

Regarding `COC(=O)C1=COC2OC3C(C(C)O)C(=O)OC34C=CC1C24` (stereo unspecified), the GI50 was 53.8 µM (inactive) with 786-0; 55 µM (inactive) in the assay with CAKI-1; 40.6 µM (inactive) in the assay with COLO 205; > 100 µM (inactive) in the assay on HCC 2998; 31.9 µM with HCT-15; 32.2 µM (inactive) in the assay with K562. The GI50 in the assay with M14 is 55.6 µM (inactive); in the assay on MDA-N, 29.6 µM (inactive); with MOLT-4 it was 24.3 µM (inactive); with NCI-H23, 80.9 µM (inactive); with NCI-H522, 14.8 µM (inactive); in the assay on SK-MEL-2, 31 µM (inactive). For the same compound, the GI50 was 35.8 µM (inactive) in the assay with SNB-75; 29.4 µM (inactive) in the assay on SW-620; 39.4 µM (inactive) in the assay on T47D; 60 µM (inactive) with U-251; 29.3 µM (inactive) with UACC-62; 74.6 µM (inactive) in the assay on UO-31.

Regarding `COCOc1cc(OC)ccc1C/C(=N/O)C(=O)OC`, the GI50 with 786-0 was > 100 µM (inactive); with CAKI-1 it was > 100 µM (inactive); with COLO 205, > 100 µM (inactive); in the assay with HCC 2998, > 100 µM (inactive); with HCT-15, above 100 µM; in the assay with K562, > 100 µM (inactive). Moreover, the GI50 in the assay on M14, in the assay with MDA-N, in the assay on MOLT-4, in the assay with NCI-H23, in the assay on NCI-H522 and in the assay on RXF 393 was > 100 µM (inactive) throughout. The GI50 is > 100 µM (inactive) with SK-MEL-2; 31.8 µM (inactive) in the assay on SNB-75; > 100 µM (inactive) in the assay with SW-620; > 100 µM (inactive) with T47D; > 100 µM (inactive) with U-251; > 100 µM (inactive) with UACC-62. Moreover, in the assay on UO-31, the GI50 was > 100 µM (inactive).

With `COc1ccc(NC(=O)/C(=N\NC(=O)C[n+]2ccccc2)c2c(O)c3ccc(O)cc3oc2=O)c([N+](=O)[O-])c1`, the GI50 in the assay with 786-0 is > 100 µM (inactive); with CAKI-1, > 100 µM (inactive); in the assay with COLO 205, > 100 µM (inactive); in the assay with HCC 2998 it was > 100 µM (inactive); in the assay on HCT-15, above 100 µM; with K562, > 100 µM (inactive). Further, the GI50 in the assay on M14 was > 100 µM (inactive); in the assay with MDA-N it was > 100 µM (inactive); with MOLT-4, 85.5 µM (inactive); in the assay with NCI-H23 it was > 100 µM (inactive); in the assay with NCI-H522, > 100 µM (inactive); in the assay on SK-MEL-2, > 100 µM (inactive). The GI50 is 92 µM (inactive) with SNB-75; > 100 µM (inactive) in the assay on SW-620; > 100 µM (inactive) with T47D; > 100 µM (inactive) with U-251; > 100 µM (inactive) with UACC-62; > 100 µM (inactive) with UO-31.

`CCOC(=O)CCC(NC(=O)C(CCC(=O)OCC)NC(=O)C(Cc1ccc([N+](=O)[O-])cc1)NC(C)=O)C(=O)NNC(=O)OC(C)(C)C` (stereo unspecified): the GI50 with 786-0 is > 100 µM (inactive); in the assay with COLO 205, > 100 µM (inactive); in the assay with HCC 2998, > 100 µM (inactive); with HCT-15, above 100 µM; with K562, > 100 µM (inactive); in the assay with M14, > 100 µM (inactive). Besides, the GI50 in the assay with MDA-N is > 100 µM (inactive); with MOLT-4, > 100 µM (inactive); in the assay on NCI-H23, 65.6 µM (inactive); in the assay with RXF 393, 14 µM (inactive); in the assay on SK-MEL-2, > 100 µM (inactive); with SNB-75, > 100 µM (inactive). In addition, the GI50 is > 100 µM (inactive) with SW-620; 37.3 µM (inactive) with T47D; > 100 µM (inactive) in the assay on U-251; > 100 µM (inactive) in the assay on UACC-62; > 100 µM (inactive) in the assay on UO-31.

`CC(C)(C)OC(=O)NC(CC(=O)OCc1ccccc1)C(=O)NC(C)(C)C(N)=O` (stereo unspecified) (Boc-[ξD](OBn)-[Aib]-NH2): the GI50 with 786-0 is > 100 µM (inactive); in the assay on CAKI-1 it was > 100 µM (inactive); with COLO 205, > 100 µM (inactive); with HCT-15, above 100 µM; with K562 it was > 100 µM (inactive); in the assay on M14, > 100 µM (inactive). The GI50 with MDA-N, with MOLT-4, with NCI-H23, with NCI-H522, with RXF 393 and in the assay with SK-MEL-2 was > 100 µM (inactive) throughout. The GI50 in the assay with SNB-75 was > 100 µM (inactive); in the assay with SW-620, > 100 µM (inactive); with T47D it was > 100 µM (inactive); in the assay with U-251, > 100 µM (inactive); in the assay on UACC-62, 0.0204 µM (active); in the assay on UO-31 it was > 100 µM (inactive).
